# Legend:
# Format in all cases: in vivo, SD rats
# IL-1 = experiment: Serum IL-1 by ELISA, TNBS model rats; conditions: 100 mg/kg once per day, 21 days
# Protocol: (§1) Grouping: experiment was carried out by using two ways of intracolonic and intragastric administrations. […] There were 10 rats each group. Method for establishing rat model: referring to Morris method, TNBS was used to induce the SD rat Crohn's disease model (abbreviated as “TNBS model”). 24 hours before modeling, the SD rats were fasted but water was given. […] The rats of blank control group were normally fed with free access to water and the same volume of normal saline was given in the same administration routes by referring to the dosage regime of aforementioned treatment groups. The rats of model group were administrated with the same volume of normal saline in the same administration routes. […] (2) Serum indices: after final administration, the testing rats were fasted but given water. 24 hours later, blood was gained from abdominal aorta. Serum IFN-γ, IL-1, IL-4, IL-10 and Gln in intestinal mucosa were determined by enzyme-linked immunosorbent assay (ELISA) in rats.
# Gln in intestinal mucosa = Gln in intestinal mucosa by ELISA, OXZ model rats; conditions: 100 mg/kg once per day, 11 days
# Protocol: (§2) Grouping: the experiment was carried out by using two ways of intracolonic and intragastric administration. […] There were 10 rats each group. Method for establishing rat model: referring to the Heller method, OXZ was used to induce the SD rat Crohn's disease model (abbreviated as “OXZ model”). Neck and back skin of rats were shaved (2 cm×2 cm). Ethanol was used to prepare 5% (w/v) OXZ solution, and 0.3 ml resultant OXZ solution was dripped on the skin of rats. After the solution was air-dried naturally, skin allergy occurred in rats. The sensitized rats were adaptively raised for 5 days, […] anesthetized by intraperitoneal injection of pentobarbital sodium. […] After completion, the rats were inverted by lifting tails for 60s to make the solution totally absorbed. […] If the rats manifested dark hair color, body weight loss, poor appetite, lassitude, watery stool or diarrhea, the model establishment was success. Administration method: after successful model establishment by OXZ, the drug was given to rats. The TCM preparation k saline solutions at corresponding dose were administered to the groups of preparation k of all doses and the […] saline solution, a positive drug, administrated to the positive control group. […] Serum IFN-γ, IL-4, and Gln in intestinal mucosa were determined by ELISA in rats.
# [1] = tested on: OXZ-induced SD rat Crohn's disease model; experiment: Colon gross damage and histopathological score, OXZ model rats; conditions: 100 mg/kg
# Protocol: Grouping: the experiment was carried out by using two ways of intracolonic and intragastric administration. […] There were 10 rats each group. Method for establishing rat model: referring to the Heller method, OXZ was used to induce the SD rat Crohn's disease model (abbreviated as “OXZ model”). Neck and back skin of rats were shaved (2 cm×2 cm). Ethanol was used to prepare 5% (w/v) OXZ solution, and 0.3 ml resultant OXZ solution was dripped on the skin of rats. […] The sensitized rats were adaptively raised for 5 days, […] anesthetized by intraperitoneal injection of pentobarbital sodium. […] After completion, the rats were inverted by lifting tails for 60s to make the solution totally absorbed. […] If the rats manifested dark hair color, body weight loss, poor appetite, lassitude, watery stool or diarrhea, the model establishment was success. Administration method: after successful model establishment by OXZ, the drug was given to rats. The TCM preparation k saline solutions at corresponding dose were administered to the groups of preparation k of all doses and the […] saline solution, a positive drug, administrated to the positive control group. The rats of blank control group were normally fed, given with water and the same volume of normal saline was given in the same administration routes by referring to the dosage regime of aforesaid treatment groups. The rats of model group were administrated with the same volume of normal saline in the same administration routes. The dose of each group was as follows: […] group at 100 mg/kg rat weight, the TCM preparation k high-dose group at 2.023 g raw medicine/kg rat weight, the middle-dose group at 1.012 g raw medicine/kg rat weight and the low-dose group at 0.506 g raw medicine/kg rat weight.
# IL-10 = experiment: Serum IL-10 by ELISA, TNBS model rats; conditions: 100 mg/kg once per day, 21 days
# Protocol: as §1
# IL-4 = experiment: Serum IL-4 by ELISA, OXZ model rats; conditions: 100 mg/kg once per day, 11 days
# Protocol: as §2
# IFN-γ = experiment: Serum IFN-γ by ELISA, OXZ model rats; conditions: 100 mg/kg once per day, 11 days
# Protocol: as §2
# [2] = Table 18: OXZ-model rats, route not printed in title
compound,measurement,setting,value
"Nc1ccc(O)c(C(=O)O)c1 [mesalamine, Mesalamine]",IL-1 serum content (Mean ± SD),IL-1; intracolonic,167.66 ± 26.95 pg/mL
same,IL-1 serum content (Mean ± SD),IL-1; intragastric,154.59 ± 39.98 pg/mL
same,Gln in intestinal mucosa (Mean ± SD),Gln in intestinal mucosa; intracolonic,124.06 ± 24.40 µmol/L
same,Gln in intestinal mucosa (Mean ± SD),Gln in intestinal mucosa; intragastric,132.59 ± 41.74 µmol/L
same,Gross damage score (Mean ± SD),"[1]; OXZ model rats, intragastric",1.700 ± 1.494
same,Gross damage score (Mean ± SD),[1]; [2],1.800 ± 1.229
same,Histopathological score (Mean ± SD),[1]; [2],3.17 ± 1.33
same,IL-10 serum content (Mean ± SD),IL-10; intracolonic,88.06 ± 10.47 pg/mL
same,IL-10 serum content (Mean ± SD),IL-10; intragastric,88.56 ± 16.77 pg/mL
same,IL-4 serum content (Mean ± SD),IL-4; intracolonic,86.63 ± 11.20 pg/mL
same,IL-4 serum content (Mean ± SD),IL-4; intragastric,86.86 ± 7.84 pg/mL
same,IFN-γ serum content (Mean ± SD),IFN-γ; intracolonic,85.85 ± 10.66 pg/mL
same,IFN-γ serum content (Mean ± SD),IFN-γ; intragastric,81.88 ± 18.00 pg/mL

# Source: patent publication US20160220602A1, “USE OF CHINESE MEDICINE PREPARATION IN PREPARING DRUG FOR PREVENTING AND/OR TREATING CROHN'S DISEASE” (TASLY PHARMACEUTICAL GROUP CO., LTD., priority 2013, published 2016)
